Results reported in patent US20080292673A1, “Bioactive agrichemical compositions and use therreof” (priority 2007, published 2008).

Tested on: E. amylovora 153N
Assay: Fire blight on crabapples (Example 287)
Assay type: in vivo, Snow Drift crabapple trees
Method: A study of the bioefficacy of the various agrichemical compositions, including bioactive acid solutions and blends thereof with an antibiotic agrichemical, were evaluated to assess their bioefficacy against fire blight on crabapples. The study was conducted on 5 year old Snow Drift crabapple trees, with each of the compositions being applied to ten trees in two-subplots of five trees, four different times: at 100% bloom-day 1, a second application was made on day 4, a third on day 11 and a final treatment on day 19. The trees were inoculated with E. amylovora […] at a concentration of 4×10^6 cells per milliliter on day 1, following drying of the treatment, with the inoculation being repeated on day 13. Evaluation for fire blight was completed on 100 blossoms for each of the subplots on day 12, day 19 and day 27. Additionally, the incidence of shoot infection and the length of […] evaluated on day 63. The test compositions were prepared by forming solutions of the bioactive agents. Two different dilutions of the MI2 bioactive were evaluated; the first employing 94.46 ml/gallon (25 ml/l) of water (5 ppm of each metal) and the second 188.9 ml/gallon (50 ml/l) of water (10 ppm of each metal). […] Finally, copper hydroxide was diluted at a rate of 1 lb/gallon (119.8 g/l). Each of the compositions and blends were spray applied at a rate of 50 gallons (189.3 l) pre acre. The results are presented as the mean of the counts.

## [H]/N=C(/N)N[C@H]1[C@H](O)[C@@H](O)[C@H](O[C@@H]2O[C@@H](C)[C@](O)(C=O)[C@H]2O[C@@H]2O[C@@H](CO)[C@H](O)[C@@H](O)[C@@H]2NC)[C@@H](N/C(N)=N\[H])[C@@H]1O [streptomycin]
Evaluated on day 63
  shoot blight incidence, in words: greatly reduced
Length of cankers evaluated on day 63
  canker, in words: appeared to prevent canker
